Tests used:
Japanese bulrush = assay: Test Example 1: herbicidal activity, application before weed generation under submerged conditions (Table 16, symbol B); assay type: in vivo, Japanese bulrush (Schoenoplectus juncoides); conditions: amount of applied herbicide 320 g/ha
Summary of the method: (§1)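 Alluvial soil was flooded to 4 cm depth, weed seeds were sown mixed and 2.5-leaf rice seedlings were transplanted. On sowing day, the compound's emulsion, diluted in water to a set dose, was applied to the water surface. Plants grew at 25–30 °C and were scored 0–5 after three weeks.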

persian speedwell = assay: Test Example 5: herbicidal effect by foliage application, plastic box (Table 20, symbol R); assay type: in vivo, Persian speedwell (Veronica persica); conditions: 320 g/ha; for R: persian speedwell, herbicidal effect grade: foliage application, three weeks after application
Summary of the method: (§2)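 Plants sown in sterilized diluvial soil and grown 14 days in a greenhouse at 25° C to 30° C, then sprayed on the foliage with the compound's emulsion diluted in water to a predetermined herbicide amount. Injury to weeds and crops scored three weeks after application on a visual rating scale.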

windgrass = assay: Test Example 5: herbicidal effect by foliage application, plastic box (Table 20, symbol L); assay type: in vivo, windgrass (Apera spica-venti); conditions: 320 g/ha; for L: windgrass, herbicidal effect grade: foliage application, three weeks after application
Summary of the method: as §2

Chinese sprangletop = assay: Test Example 3: herbicidal effect by foliage application, Wagner pot (Table 18, symbol D); assay type: in vivo, chinese sprangletop (Leptochloa chinensis); conditions: for herbicidal effect on D: Chinese sprangletop: amount of applied herbicide 320 g/ha
Summary of the method: (§3)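 Plants were sown in alluvial soil held under 0.1–0.5 cm standing water and grown 14 days in a greenhouse at 25–30 °C. An emulsifiable formulation, water-diluted to the set dose, was then sprayed onto the foliage, and effects were scored three weeks later using previously defined criteria.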

barnyard grass [1] = assay: Test Example 5: herbicidal effect by foliage application, plastic box (Table 20, symbol H); assay type: in vivo, barnyard grass (Echinochloa crus-galli); conditions: 320 g/ha; for H: barnyard grass, herbicidal effect grade: foliage application, three weeks after application
Summary of the method: as §2

lambsquarters = assay: Test Example 5: herbicidal effect by foliage application, plastic box (Table 20, symbol O); assay type: in vivo, lambsquarters (Chenopodium album); conditions: 320 g/ha; for O: lambsquarters, herbicidal effect grade: foliage application, three weeks after application
Summary of the method: as §2

velvetleaf = assay: Test Example 5: herbicidal effect by foliage application, plastic box (Table 20, symbol M); assay type: in vivo, velvetleaf (Abutilon theophrasti); conditions: 320 g/ha; for M: velvetleaf, herbicidal effect grade: foliage application, three weeks after application
Summary of the method: as §2

wild oat = assay: Test Example 5: herbicidal effect by foliage application, plastic box (Table 20, symbol I); assay type: in vivo, wild oat (Avena fatua); conditions: 320 g/ha; for I: wild oat, herbicidal effect grade: foliage application, three weeks after application
Summary of the method: as §2

chickweed = assay: Test Example 5: herbicidal effect by foliage application, plastic box (Table 20, symbol P); assay type: in vivo, common chickweed (Stellaria media); conditions: 320 g/ha; for P: chickweed, herbicidal effect grade: foliage application, three weeks after application
Summary of the method: as §2

Italian ryegrass = assay: Test Example 5: herbicidal effect by foliage application, plastic box (Table 20, symbol K); assay type: in vivo, Italian ryegrass (Lolium multiflorum); conditions: 320 g/ha; for K: Italian ryegrass, herbicidal effect grade: foliage application, three weeks after application
Summary of the method: as §2

redroot pigweed = assay: Test Example 5: herbicidal effect by foliage application, plastic box (Table 20, symbol N); assay type: in vivo, redroot pigweed (Amaranthus retroflexus); conditions: 320 g/ha; for N: redroot pigweed, herbicidal effect grade: foliage application, three weeks after application
Summary of the method: as §2

barnyard grass [2] = assay: Test Example 3: herbicidal effect by foliage application, Wagner pot (Table 18, symbol H); assay type: in vivo, barnyard grass (Echinochloa crus-galli); conditions: for herbicidal effect on H: barnyard grass: amount of applied herbicide 320 g/ha
Summary of the method: as §3

blackgrass = assay: Test Example 5: herbicidal effect by foliage application, plastic box (Table 20, symbol J); assay type: in vivo, blackgrass (Alopecurus myosuroides); conditions: 320 g/ha; for J: blackgrass, herbicidal effect grade: foliage application, three weeks after application
Summary of the method: as §2

rice flat sedge = assay: Test Example 3: herbicidal effect by foliage application, Wagner pot (Table 18, symbol E); assay type: in vivo, rice flat sedge (Cyperus iria); conditions: for herbicidal effect on E: rice flat sedge: amount of applied herbicide 320 g/ha
Summary of the method: as §3

southern crabgrass = assay: Test Example 5: herbicidal effect by foliage application, plastic box (Table 20, symbol F); assay type: in vivo, southern crabgrass (Digitaria ciliaris); conditions: 320 g/ha; for F: southern crabgrass, herbicidal effect grade: foliage application, three weeks after application
Summary of the method: as §2

oval-leafed pondweed = assay: Test Example 1: herbicidal activity, application before weed generation under submerged conditions (Table 16, symbol C); assay type: in vivo, oval-leafed pondweed (Monochoria vaginalis); conditions: amount of applied herbicide 320 g/ha
Summary of the method: as §1

late watergrass = assay: Test Example 1: herbicidal activity, application before weed generation under submerged conditions (Table 16, symbol A); assay type: in vivo, late watergrass (Echinochloa oryzicola); conditions: amount of applied herbicide 320 g/ha
Summary of the method: as §1

green foxtail = assay: Test Example 5: herbicidal effect by foliage application, plastic box (Table 20, symbol G); assay type: in vivo, green foxtail (Setaria viridis); conditions: 320 g/ha; for G: green foxtail, herbicidal effect grade: foliage application, three weeks after application
Summary of the method: as §2

[3] = foliage application after 14-day growth, evaluated three weeks after application

Compound: COc1ccccc1-c1sc2cc(F)ccc2c1-c1c(OC(=O)N2CCOCC2)c(C)nn(C)c1=O [3-025]
- Herbicidal effect, B: Japanese bulrush (Japanese bulrush): 0 (Herbicidal rate of 5% or less (almost no effect))
- R: persian speedwell, herbicidal effect grade (persian speedwell): 0 (Herbicidal rate of 5% or less (almost no effect))
- L: windgrass, herbicidal effect grade (windgrass): 0 (Herbicidal rate of 5% or less (almost no effect))
- herbicidal effect on D: Chinese sprangletop (Chinese sprangletop): 0 (Herbicidal rate of 5% or less (almost no effect))
- H: barnyard grass, herbicidal effect grade (barnyard grass [1]): 0 (Herbicidal rate of 5% or less (almost no effect))
- O: lambsquarters, herbicidal effect grade (lambsquarters): 0 (Herbicidal rate of 5% or less (almost no effect))
- M: velvetleaf, herbicidal effect grade (velvetleaf): 0 (Herbicidal rate of 5% or less (almost no effect))
- I: wild oat, herbicidal effect grade (wild oat): 0 (Herbicidal rate of 5% or less (almost no effect))
- P: chickweed, herbicidal effect grade (chickweed): 3 (Herbicidal rate of 40% or more and less than 70%)
- K: Italian ryegrass, herbicidal effect grade (Italian ryegrass): 0 (Herbicidal rate of 5% or less (almost no effect))
- N: redroot pigweed, herbicidal effect grade (redroot pigweed): 1 (Herbicidal rate of 5% or more and less than 20%)
- herbicidal effect on H: barnyard grass (barnyard grass [2]): 3 (Herbicidal rate of 40% or more and less than 70%)
- J: blackgrass, herbicidal effect grade (blackgrass): 0 (Herbicidal rate of 5% or less (almost no effect))
- herbicidal effect on E: rice flat sedge (rice flat sedge): 2 (Herbicidal rate of 20% or more and less than 40%)
- F: southern crabgrass, herbicidal effect grade (southern crabgrass): 0 (Herbicidal rate of 5% or less (almost no effect))
- Herbicidal effect, C: oval-leafed pondweed (oval-leafed pondweed): 3 (Herbicidal rate of 40% or more and less than 70%)
- Herbicidal effect, A: late watergrass (late watergrass): 0 (Herbicidal rate of 5% or less (almost no effect))
- G: green foxtail, herbicidal effect grade (green foxtail): 0 (Herbicidal rate of 5% or less (almost no effect))

Compound: COc1ccccc1-c1sc2cc(F)ccc2c1-c1c(OC(=O)SC(C)(C)C)c(C)nn(C)c1=O [3-026]
- Herbicidal effect, B: Japanese bulrush (Japanese bulrush): 0 (Herbicidal rate of 5% or less (almost no effect))
- R: persian speedwell, herbicidal effect grade (persian speedwell): 0 (Herbicidal rate of 5% or less (almost no effect))
- L: windgrass, herbicidal effect grade (windgrass): 0 (Herbicidal rate of 5% or less (almost no effect))
- herbicidal effect on D: Chinese sprangletop (Chinese sprangletop): 0 (Herbicidal rate of 5% or less (almost no effect))
- H: barnyard grass, herbicidal effect grade (barnyard grass [1]): 0 (Herbicidal rate of 5% or less (almost no effect))
- O: lambsquarters, herbicidal effect grade (lambsquarters): 1 (Herbicidal rate of 5% or more and less than 20%)
- M: velvetleaf, herbicidal effect grade (velvetleaf): 0 (Herbicidal rate of 5% or less (almost no effect))
- I: wild oat, herbicidal effect grade (wild oat): 0 (Herbicidal rate of 5% or less (almost no effect))
- P: chickweed, herbicidal effect grade (chickweed): 0 (Herbicidal rate of 5% or less (almost no effect))
- K: Italian ryegrass, herbicidal effect grade (Italian ryegrass): 0 (Herbicidal rate of 5% or less (almost no effect))
- N: redroot pigweed, herbicidal effect grade (redroot pigweed): 5 (Herbicidal rate of 90% or more (almost completely withered))
- herbicidal effect on H: barnyard grass (barnyard grass [2]): 4 (Herbicidal rate of 70% or more and less than 90%)
- J: blackgrass, herbicidal effect grade (blackgrass): 0 (Herbicidal rate of 5% or less (almost no effect))
- herbicidal effect on E: rice flat sedge (rice flat sedge): 2 (Herbicidal rate of 20% or more and less than 40%)
- F: southern crabgrass, herbicidal effect grade (southern crabgrass): 0 (Herbicidal rate of 5% or less (almost no effect))
- Herbicidal effect, C: oval-leafed pondweed (oval-leafed pondweed): 3 (Herbicidal rate of 40% or more and less than 70%)
- Herbicidal effect, A: late watergrass (late watergrass): 2 (Herbicidal rate of 20% or more and less than 40%)
- G: green foxtail, herbicidal effect grade (green foxtail): 0 (Herbicidal rate of 5% or less (almost no effect))

Compound: COc1ccccc1-c1sc2cc(F)ccc2c1-c1c(OCC(=O)c2ccccc2)c(C)nn(C)c1=O [3-030]
- Herbicidal effect, B: Japanese bulrush (Japanese bulrush): 0 (Herbicidal rate of 5% or less (almost no effect))
- R: persian speedwell, herbicidal effect grade (persian speedwell): 0 (Herbicidal rate of 5% or less (almost no effect))
- L: windgrass, herbicidal effect grade (windgrass): 0 (Herbicidal rate of 5% or less (almost no effect))
- herbicidal effect on D: Chinese sprangletop (Chinese sprangletop): 2 (Herbicidal rate of 20% or more and less than 40%)
- H: barnyard grass, herbicidal effect grade (barnyard grass [1]): 0 (Herbicidal rate of 5% or less (almost no effect))
- O: lambsquarters, herbicidal effect grade (lambsquarters): 1 (Herbicidal rate of 5% or more and less than 20%)
- M: velvetleaf, herbicidal effect grade (velvetleaf): 3 (Herbicidal rate of 40% or more and less than 70%)
- I: wild oat, herbicidal effect grade (wild oat): 0 (Herbicidal rate of 5% or less (almost no effect))
- P: chickweed, herbicidal effect grade (chickweed): 3 (Herbicidal rate of 40% or more and less than 70%)
- K: Italian ryegrass, herbicidal effect grade (Italian ryegrass): 0 (Herbicidal rate of 5% or less (almost no effect))
- N: redroot pigweed, herbicidal effect grade (redroot pigweed): 3 (Herbicidal rate of 40% or more and less than 70%)
- herbicidal effect on H: barnyard grass (barnyard grass [2]): 4 (Herbicidal rate of 70% or more and less than 90%)
- J: blackgrass, herbicidal effect grade (blackgrass): 3 (Herbicidal rate of 40% or more and less than 70%)
- herbicidal effect on E: rice flat sedge (rice flat sedge): 0 (Herbicidal rate of 5% or less (almost no effect))
- F: southern crabgrass, herbicidal effect grade (southern crabgrass): 0 (Herbicidal rate of 5% or less (almost no effect))
- Herbicidal effect, C: oval-leafed pondweed (oval-leafed pondweed): 3 (Herbicidal rate of 40% or more and less than 70%)
- Herbicidal effect, A: late watergrass (late watergrass): 2 (Herbicidal rate of 20% or more and less than 40%)
- G: green foxtail, herbicidal effect grade (green foxtail): 1 (Herbicidal rate of 5% or more and less than 20%)

Compound: COc1ccc2c(-c3c(OCC#N)c(C)nn(C)c3=O)c(-c3ccccc3OC)sc2c1 [3-153]
- Herbicidal effect, B: Japanese bulrush (Japanese bulrush): 3 (Herbicidal rate of 40% or more and less than 70%)
- herbicidal effect on R: persian speedwell (evaluation grade 0-5) (persian speedwell; [3]): 4 (Herbicidal rate of 70% or more and less than 90%)
- herbicidal effect on L: windgrass (evaluation grade 0-5) (windgrass; [3]): 4 (Herbicidal rate of 70% or more and less than 90%)
- herbicidal effect on Chinese sprangletop (D) (Chinese sprangletop; 320 g/ha): 2 (Herbicidal rate of 20% or more and less than 40%)
- herbicidal effect on H: barnyard grass (evaluation grade 0-5) (barnyard grass [1]; [3]): 5 (Herbicidal rate of 90% or more (almost completely withered))
- herbicidal effect on O: lambsquarters (evaluation grade 0-5) (lambsquarters; [3]): 4 (Herbicidal rate of 70% or more and less than 90%)
- herbicidal effect on M: velvetleaf (evaluation grade 0-5) (velvetleaf; [3]): 5 (Herbicidal rate of 90% or more (almost completely withered))
- herbicidal effect on I: wild oat (evaluation grade 0-5) (wild oat; [3]): 0 (Herbicidal rate of 5% or less (almost no effect))
- herbicidal effect on P: chickweed (evaluation grade 0-5) (chickweed; [3]): 5 (Herbicidal rate of 90% or more (almost completely withered))
- herbicidal effect on K: Italian ryegrass (evaluation grade 0-5) (Italian ryegrass; [3]): 0 (Herbicidal rate of 5% or less (almost no effect))
- herbicidal effect on N: redroot pigweed (evaluation grade 0-5) (redroot pigweed; [3]): 4 (Herbicidal rate of 70% or more and less than 90%)
- herbicidal effect on barnyard grass (H) (barnyard grass [2]; 320 g/ha): 5 (Herbicidal rate of 90% or more (almost completely withered))
- herbicidal effect on J: blackgrass (evaluation grade 0-5) (blackgrass; [3]): 3 (Herbicidal rate of 40% or more and less than 70%)
- herbicidal effect on rice flat sedge (E) (rice flat sedge; 320 g/ha): 0 (Herbicidal rate of 5% or less (almost no effect))
- herbicidal effect on F: southern crabgrass (evaluation grade 0-5) (southern crabgrass; [3]): 3 (Herbicidal rate of 40% or more and less than 70%)
- Herbicidal effect, C: oval-leafed pondweed (oval-leafed pondweed): 3 (Herbicidal rate of 40% or more and less than 70%)
- Herbicidal effect, A: late watergrass (late watergrass): 3 (Herbicidal rate of 40% or more and less than 70%)
- herbicidal effect on G: green foxtail (evaluation grade 0-5) (green foxtail; [3]): 5 (Herbicidal rate of 90% or more (almost completely withered))

Source: patent US20230085307A1, “PYRIDAZINONE COMPOUND AND HERBICIDE” (NISSAN CHEMICAL CORPORATION, priority 2019, published 2023)
